Laboratory results taken from patent publication US20150297482A1, “MALODOR COUNTERACTING COMPOSITIONS AND METHOD FOR THEIR USE TO COUNTERACT SWEAT MALODOR” (FIRMENICH SA, priority 2009, published 2015).
Read-outs that look alike come from different tables or passages of the source.

System: Staphylococcus haemolyticus CNCM I-4170
Assay: Protocol A: in-vitro malodor inhibition (free thiol groups from Cys-Gly precursor, DTNB absorbance at 412 nm)
Assay type: cell-based
Conditions: Staphylococcus haemolyticus, CNCMI4170, read-out: Ingredient Malodor Inhibition Value (%); for inhibition at 0.0012 %: 0.0012 w/v % in medium; for inhibition at 0.0025 %: 0.0025 w/v % in medium
Text: Further details of such a screening and % inhibition measurement and definition are described further on in this application. The precursor used, which may also be in the form of a human sweat sample, typically generates malodorant sulfur compounds when acted upon by the Staphylococcus haemolyticus cells, or by a β-lyase present in such cells. The malodor inhibition coefficient, as defined herein, reflects the % of reduction in free SH groups generated in the above-mentioned medium by the enzymatic activity of the bacterial cells when in presence of the MOC ingredient or MOC composition in question, as compared to the same measurement in their absence. […] Alternatively, the bacterial cells can be replaced by a β-lyase present in said cells. […] Detection of enzymatic activity inhibition is measured via the sulfur groups, namely thiol groups, freed from the precursor bacterial transformation, by comparison with the reference experiment in the absence of the respective MOC ingredient, said sulfur groups being detected by interaction with DTNB, a known chemical detector system for thiols. The reaction can be monitored by absorbance reading at 412 nm. The procedure can be performed indifferently with either a purified or semi-purified enzyme or intact bacterial cells, as in the case described here. Malodor inhibition coefficient is measured as a function of the percentage of free thiol groups in the medium, over time, by an absorbance method, and reflects the reduction in malodor obtained in the presence of the MOC ingredients and compositions. […] At the end of the growth phase, the bacterial cells were harvested by centrifugation at 5000 rpm for 15 min. The cell pellet was then washed with 0.1 volumes of sterile potassium phosphate buffer 0.1 M, pH 7.5. […] The precursor was used at 0.17 mM final concentration. • Detection reagent DTNB • DTNB (5,5′-Dithio-bis-(2-nitrobenzoic acid; […]

SMILES | inhibition at 0.0012 % [%] | inhibition at 0.0025 % [%] | inhibition at 0.006 % (0.006 w/v % in medium) [%] | inhibition at 0.0125 % (0.0125 w/v % in medium) [%] | inhibition at 0.025 % (0.025 w/v % in medium) [%] | inhibition at 0.05 % (0.05 w/v % in medium) [%] | inhibition at 0.0012 % (Table 2) [%] | inhibition at 0.0025 % (Table 2) [%] | inhibition at 0.005 % (Table 2, 0.005 w/v % in medium) [%]
O=C1CCCCCCCCCCC(=O)OCCO1 [1,4-Dioxacyclohexadecane-5,16-dione] | 0 | 0 | 0 | 28.2 | 37.3 | 36.5 |  |  | 
c1nc2c(o1)CCCCCCCCCC2 [4,5,6,7,8,9,10,11,12,13-Decahydrocyclododeca-1,3-oxazole] |  |  |  |  |  |  | 0 | 0 | 52.2
